# In patent publication US20040138064A1, “Adjuvant for water soluble herbicides” (priority 2002, published 2004):
# Columns and labels:
# [1] = system: grain sorghum (Milo); test: Greenhouse spray of glyphosate (0.13 lb AI per 10 gallons per acre) with or without sulfate adjuvant on grain sorghum; format: in vivo, Sorghum bicolar; settings: for Plant Height Sorghum % Control 15 DAT / Plant Weight Sorghum % Control 15 DAT: no sulfate adjuvant
# Text: (§1) The formulations shown in Table 3 and Table 4 are either glyphosate and ammonium sulfate (AMS) or glyphosate and isopropylammonium sulfate (MIPAS). In Table 3 and Table 4, 0 ppm hardness refers to the absence of minerals such as calcium ions and 342 ppm hardness refers to the amount of calcium ions present. The moles of sulfate indicate the amount of isopropylammonium sulfate or ammonium sulfate per liter. The aqueous solution was applied to the plots at a level of 10 gallons per acre. The two tested plants were soybeans (Glycine max) and grain sorghum (Milo), (Sorghum bicolar).
# (§2) The herbicidal solutions were applied in a greenhouse using a Spray chamber with an FF nozzle having a nozzle size 8001EVS. The spray apparatus was operated at 38 psi and the height of the nozzle was 9.75 inches. The watering frequency was every 6 hours for 5 minutes. The daytime temperature was 85° F. and the nighttime temperature was 70° F. with a 16 hour day. The soybean was 4-4.5 inches with one trifoliate leaf present when the herbicidal solution was applied. The grain sorghum was 4-8 inches with 3-4 leaves present when the herbicidal solution was applied.
# (§3) The Figures show values of moles of ammonium sulfate or isopropylammonium sulfate per liter. The actual solution used on the grain sorghum contained 0.13 pounds of glyphosate active ingredient per 10 gallons of water per acre. The actual solution used on the soybean contained 0.75 pounds glyphosate active ingredient per 10 gallons of water per acre.
# (§4) FIGS. 5 and 9 show the height of sorghum and soybean, respectively, when distilled water was used, as a percent reduction of the height of the control after 15 days. FIGS. 6 and 10 show the height of sorghum and soybean, respectively, when hard water was used, as a percent reduction of the height of the control after 15 days. FIGS. 7 and 11 show the fresh weight of sorghum and soybean, respectively, when distilled water was used, as a percent reduction of the weight of the control after 15 days. FIGS. 8 and 12 show the fresh weight of sorghum and soybean, respectively, when hard water was used, as a percent reduction of the weight of the control after 15 days. The plants were harvested and weighed to determine the fresh weight.
# (§5) Bartlett's test (commonly used in the agricultural business) was used to statistically analyze the results.
# [2] = system: Velvetleaf; test: Cabinet spray of glyphosate (about 0.63 lb AI per 10 gallons per acre) with or without sulfate adjuvant on velvetleaf; format: in vivo, ipomoea hederacea (L.) jacq. Var. integriuscula gray; settings: for Velvet Leaf % Control 7 DAT / Velvet Leaf % Control 14 DAT / Velvet Leaf % Control 21 DAT / Velvet Leaf Fresh Weight 21 DAT: no sulfate adjuvant
# Text: as §1, with “1” for “3”, “2” for “4”, “2,” for “4,”, “1000” for “342”, “Morningglory Entireleaf ([…])” for “soybeans (Glycine max)”, “Velvetleaf ([…]). The term YBI in the Figures indicates the adjuvant was isopropylammonium sulfate.” for “grain sorghum (Milo), (Sorghum bicolar).”
# (§6) The herbicidal solutions were applied in a cabinet using a Lodrift nozzle having a nozzle size 110015. The spray apparatus was operated at 40 psi using air as the propellant and water as a carrier. The boom height was 13.5 inches. The ground speed was 2.6 miles per hour. The morningglory was at the three-leaf stage when the herbicidal solution was applied. The velvetleaf was 4-6 inches in height when the herbicidal solution was applied. The normalized spray volume was 10 gallons per acre.
# (§7) The Figures show values of pounds of ammonium sulfate or isopropylammonium sulfate per hundred gallons. The actual solutions used were nominally ten gallons of the sulfate in water, e.g. one-tenth of the sulfate per hundred gallons of carrier, with twenty fluid ounces of glyphosate. Twenty fluid ounces of glyphosate contains about 0.63 pounds of glyphosate active ingredient (AI) reported as the isopropylammonium. The glyphosate active ingredient (AI) as the isopropylammonium salt is related to the glyphosate acid equivalents (AE) by the formula: (0.7142)(AI)=AE.
# (§8) FIGS. 1 and 3 show the fresh weight of morningglory and velvetleaf, respectively. The fresh weight was determined by cutting the stem of the plant flush with the ground and weighing the plant. The weight is reported as grams per pot since a single plant was grown in each pot. FIGS. 2 and 4 show the percent control at 7, 14 and 21 days for morningglory and velvetleaf, respectively.
# as §5
# [3] = system: Morningglory Entireleaf; test: Cabinet spray of glyphosate (about 0.63 lb AI per 10 gallons per acre) with or without sulfate adjuvant on morningglory; format: in vivo, abutilon theophrasti medik; settings: for Morning Glory % Control 7 DAT / Morning Glory % Control 14 DAT / Morning Glory % Control 21 DAT / Morning Glory Fresh Weight 21 DAT: no sulfate adjuvant
# Text: as §1, with “1” for “3”, “2” for “4”, “2,” for “4,”, “1000” for “342”, “Morningglory Entireleaf ([…])” for “soybeans (Glycine max)”, “Velvetleaf ([…]). The term YBI in the Figures indicates the adjuvant was isopropylammonium sulfate.” for “grain sorghum (Milo), (Sorghum bicolar).”
# as §6, §7, §8
# [4] = system: soybeans; test: Greenhouse spray of glyphosate (0.75 lb AI per 10 gallons per acre) with or without sulfate adjuvant on soybean; format: in vivo, Glycine max; settings: for height reduction of soybean, statistical comparison with the no adjuvant case / weight reduction of soybean, statistical comparison with the no adjuvant case: 0 ppm water hardness and 342 ppm water hardness; for Plant Height Soybean % Control 15 DAT / Plant Weight Soybean % Control 15 DAT: no sulfate adjuvant
# Text: as §1, §2, §3, §4
# [5] = 342 ppm of water hardness, three highest concentrations of MIPAS, two higher concentrations of AMS
# [6] = water hardness 0 ppm, AMS at the two highest concentrations, all MIPAS concentrations
# [7] = water hardness 1000 ppm, higher concentrations of AMS, all MIPAS
# [8] = water hardness 1000 ppm, two higher concentrations of AMS, all the MIPAS treatments
structure (smiles),measurement,setting,value
"N.N.O=S(=O)(O)O [AMS, ammonium sulfate]","fresh weight of sorghum, statistical comparison with the no adjuvant case (Bartlett's test)",[1]; 0 ppm water hardness,not significantly different from the no adjuvant case
same,"height reduction of sorghum, statistical comparison with the no adjuvant case (Bartlett's test)",[1]; 0 ppm water hardness,not significantly different from the no adjuvant case
same,"fresh weight of sorghum, statistical comparison with the no adjuvant case (Bartlett's test)",[1]; [5],significantly different than the no adjuvant case
same,"fresh weight of velvetleaf, statistical comparison with no adjuvant (Bartlett's test)",[2]; water hardness 0 ppm,no statistical difference
same,"fresh weight of velvetleaf, statistical comparison with no adjuvant (Bartlett's test)","[2]; water hardness 1000 ppm, MIPAS at the two higher concentrations",no statistical difference
same,"height reduction of morningglory, statistical comparison with the no adjuvant case (Bartlett's test)",[3]; [6],statistically different from the no adjuvant case
same,"fresh weight of morningglory, statistical comparison with the no adjuvant case (Bartlett's test)",[3]; [7],statistical difference
same,"height reduction of morningglory, statistical comparison with the no adjuvant case (Bartlett's test)",[3]; [8],statistically different from the no adjuvant case
same,"height reduction of soybean, statistical comparison with the no adjuvant case",[4],not significantly different from the no adjuvant case
same,"weight reduction of soybean, statistical comparison with the no adjuvant case",[4],not significantly different from the no adjuvant case
"CC(C)N.CC(C)N.O=S(=O)(O)O [MIPAS, isopropylammonium sulfate]","fresh weight of sorghum, statistical comparison with the no adjuvant case (Bartlett's test)",[1]; 0 ppm water hardness,not significantly different from the no adjuvant case
same,"height reduction of sorghum, statistical comparison with the no adjuvant case (Bartlett's test)",[1]; 0 ppm water hardness,not significantly different from the no adjuvant case
same,"fresh weight of sorghum, statistical comparison of MIPAS with AMS (Bartlett's test)",[1]; 342 ppm of water hardness,not significantly different from each other
same,"height reduction of sorghum, statistical comparison of MIPAS with AMS (Bartlett's test)",[1]; 342 ppm of water hardness,not significantly different than the AMS results
same,"height reduction of sorghum, statistical comparison with the no adjuvant case (Bartlett's test)",[1]; 342 ppm of water hardness,significantly different than the no adjuvant case
same,"fresh weight of sorghum, statistical comparison with the no adjuvant case (Bartlett's test)",[1]; [5],significantly different than the no adjuvant case
same,"fresh weight of velvetleaf, statistical comparison with no adjuvant (Bartlett's test)",[2]; water hardness 0 ppm,no statistical difference
same,"height reduction of velvetleaf, statistical comparison with the no adjuvant case (Bartlett's test)",[2]; water hardness 0 ppm and 1000 ppm,statistically different from the no adjuvant case
same,"height reduction of velvetleaf, statistical comparison of MIPAS with AMS (Bartlett's test)","[2]; water hardness 0 ppm, high MIPAS concentrations",statistically different from the AMS results
same,"fresh weight of velvetleaf, statistical comparison of MIPAS with AMS (Bartlett's test)",[2]; water hardness 1000 ppm,no statistically significant difference
same,"height reduction of velvetleaf, statistical comparison of MIPAS with AMS (Bartlett's test)",[2]; water hardness 1000 ppm,not statistically significant
same,"fresh weight of morningglory, statistical comparison of MIPAS with AMS (Bartlett's test)",[3]; water hardness 0 ppm,no statistically significant difference
same,"fresh weight of morningglory, statistical comparison with the no adjuvant case (Bartlett's test)",[3]; water hardness 0 ppm,statistical difference
same,"height reduction of morningglory, statistical comparison of MIPAS with AMS (Bartlett's test)",[3]; water hardness 0 ppm,no statistically significant difference
same,"height reduction of morningglory, statistical comparison with the no adjuvant case (Bartlett's test)",[3]; [6],statistically different from the no adjuvant case
same,"fresh weight of morningglory, statistical comparison of MIPAS with AMS (Bartlett's test)",[3]; water hardness 1000 ppm,no statistically significant difference
same,"height reduction of morningglory, statistical comparison of MIPAS with AMS (Bartlett's test)",[3]; water hardness 1000 ppm,not statistically significant
same,"fresh weight of morningglory, statistical comparison with the no adjuvant case (Bartlett's test)",[3]; [7],statistically different from the no adjuvant case
same,"height reduction of morningglory, statistical comparison with the no adjuvant case (Bartlett's test)",[3]; [8],statistically different from the no adjuvant case
same,"height reduction of soybean, statistical comparison with the no adjuvant case",[4],not significantly different from the no adjuvant case
same,"weight reduction of soybean, statistical comparison with the no adjuvant case",[4],not significantly different from the no adjuvant case
"O=C(O)CNCP(=O)(O)O [Glyphosate, N-phosphonomethylglycine]",Plant Height Sorghum % Control 15 DAT,[1]; water hardness 0 ppm,41.04%
same,Plant Weight Sorghum % Control 15 DAT,[1]; water hardness 0 ppm,59.86%
same,Plant Height Sorghum % Control 15 DAT,[1]; water hardness 342 ppm,14.55%
same,Plant Weight Sorghum % Control 15 DAT,[1]; water hardness 342 ppm,40.97%
same,Velvet Leaf % Control 7 DAT,[2]; water hardness 0 ppm,52%
same,Velvet Leaf % Control 14 DAT,[2]; water hardness 0 ppm,84%
same,Velvet Leaf % Control 21 DAT,[2]; water hardness 0 ppm,88%
same,Velvet Leaf Fresh Weight 21 DAT,[2]; water hardness 0 ppm,1.1 grams per pot
same,Velvet Leaf % Control 7 DAT,[2]; water hardness 1000 ppm,48%
same,Velvet Leaf % Control 14 DAT,[2]; water hardness 1000 ppm,56%
same,Velvet Leaf % Control 21 DAT,[2]; water hardness 1000 ppm,52%
same,Velvet Leaf Fresh Weight 21 DAT,[2]; water hardness 1000 ppm,1.8 grams per pot
same,Morning Glory % Control 7 DAT,[3]; water hardness 0 ppm,56%
same,Morning Glory % Control 14 DAT,[3]; water hardness 0 ppm,56%
same,Morning Glory % Control 21 DAT,[3]; water hardness 0 ppm,50%
same,Morning Glory Fresh Weight 21 DAT,[3]; water hardness 0 ppm,1.4 grams per pot
same,Morning Glory % Control 7 DAT,[3]; water hardness 1000 ppm,51%
same,Morning Glory % Control 14 DAT,[3]; water hardness 1000 ppm,48%
same,Morning Glory % Control 21 DAT,[3]; water hardness 1000 ppm,46%
same,Morning Glory Fresh Weight 21 DAT,[3]; water hardness 1000 ppm,1.9 grams per pot
same,Plant Height Soybean % Control 15 DAT,[4]; water hardness 0 ppm,47.55%
same,Plant Weight Soybean % Control 15 DAT,[4]; water hardness 0 ppm,75.60%
same,Plant Height Soybean % Control 15 DAT,[4]; water hardness 342 ppm,47.77%
same,Plant Weight Soybean % Control 15 DAT,[4]; water hardness 342 ppm,59.20%
